Measurements taken from PubChem BioAssay AID1645866 (Buhrlage Lab, Dana-Farber Cancer Institute and Novartis …, 2021).
Active and inactive are the calls of the source.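 How the source made its calls: active means in confirmatory dose-response testing, peak deubiquitinase inhibition of 30% or more; inactive means the rest.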

The compounds below were run against Ubiquitin carboxyl-terminal hydrolase 28 (Homo sapiens) (UniProt Q96RU2) (assay: Ubiquitin-specific peptidase 28 DUB inhibitors, biochemical concentration-dependence assay, validation of primary screening hits (AID 1645866)). Conditions: purified USP28, ubiquitin-rhodamine fluorescence, 30 min.
Chain of Ubiquitin carboxyl-terminal hydrolase 28 (Homo sapiens) (Q96RU2 whole entry, looked up): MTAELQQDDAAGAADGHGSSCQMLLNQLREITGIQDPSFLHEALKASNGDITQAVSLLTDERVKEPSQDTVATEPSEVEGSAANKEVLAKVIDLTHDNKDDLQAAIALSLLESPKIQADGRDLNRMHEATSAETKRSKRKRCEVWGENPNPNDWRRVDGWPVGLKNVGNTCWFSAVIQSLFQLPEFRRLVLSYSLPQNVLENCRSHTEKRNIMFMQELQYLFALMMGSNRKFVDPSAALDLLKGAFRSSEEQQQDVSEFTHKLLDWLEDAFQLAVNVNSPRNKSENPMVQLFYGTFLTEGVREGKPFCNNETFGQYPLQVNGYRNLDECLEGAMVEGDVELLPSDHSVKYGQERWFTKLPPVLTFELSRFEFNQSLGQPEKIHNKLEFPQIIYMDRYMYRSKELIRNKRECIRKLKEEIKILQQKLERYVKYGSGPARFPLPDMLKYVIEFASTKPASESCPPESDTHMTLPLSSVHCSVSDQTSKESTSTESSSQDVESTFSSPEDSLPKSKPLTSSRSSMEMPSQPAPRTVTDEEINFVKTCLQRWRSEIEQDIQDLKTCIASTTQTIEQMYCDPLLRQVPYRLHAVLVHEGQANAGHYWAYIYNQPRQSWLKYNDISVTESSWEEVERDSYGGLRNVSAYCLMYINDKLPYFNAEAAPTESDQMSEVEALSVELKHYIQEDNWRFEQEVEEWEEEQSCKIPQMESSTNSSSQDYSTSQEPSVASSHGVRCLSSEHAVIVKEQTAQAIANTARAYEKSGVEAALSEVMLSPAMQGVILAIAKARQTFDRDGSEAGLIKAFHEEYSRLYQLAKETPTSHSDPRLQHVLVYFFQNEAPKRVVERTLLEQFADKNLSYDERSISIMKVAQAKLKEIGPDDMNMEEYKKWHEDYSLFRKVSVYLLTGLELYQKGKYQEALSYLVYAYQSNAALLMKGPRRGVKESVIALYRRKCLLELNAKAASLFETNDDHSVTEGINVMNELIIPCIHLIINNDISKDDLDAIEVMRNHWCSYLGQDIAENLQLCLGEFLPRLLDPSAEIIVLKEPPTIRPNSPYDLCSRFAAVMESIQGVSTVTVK
`COc1ccc(CCNC(=O)c2cn(-c3ccc(F)cc3)nn2)cc1OC` was tested, and the IC50 was 20.8 µM. Work on `Cc1ccc(NC(=O)c2ccc(Nc3nnc(C)c4ccccc34)cc2)cc1` yielded an IC50 of 6.02 µM. `COCCNC(=O)c1cc(-c2cn(-c3ccccn3)c(C)n2)n2ccccc12` was tested, and the IC50 was > 50 µM (inactive). `O=C(Cn1c(NCc2ccccc2)nc2ccccc21)NCC(F)(F)F` showed an IC50 of 46.6 µM. `CCc1ccc(OCc2nnc(SCC(=O)Nc3ccccc3OC)n2Cc2ccccc2)cc1` was tested, and the IC50 was > 50 µM (inactive). Work on `CCn1cc(-c2cc(C(=O)Nc3cnn(Cc4cccc(F)c4)c3)c3ccccc3n2)cn1` yielded an IC50 of 42.1 µM. For `O=C(Cn1cc(C(=O)C2CC2)c2ccccc21)NCc1ccc2c(c1)OCO2`, the IC50 was 24.9 µM. In the case of `CC(=O)Nc1ccc(-n2cnc(C(=O)NCc3ccc(C)cc3)c2)nc1`, the IC50 is reported as 19.1 µM. Work on `Cc1ccc2[nH]c3c(=O)n(CC4CCCO4)cnc3c2c1` (stereo unspecified) yielded an IC50 of 18 µM. Compound `COc1ccccc1NC(=O)c1cc(-c2ccccn2)nc2ccccc12` has an IC50 of 27.4 µM. `Fc1ccc(CSc2nnc(-c3ccccn3)n2Cc2ccco2)cc1` showed an IC50 of 21.9 µM. `COc1ccc(OC)c(-n2c(SCC(=O)N3CCc4ccccc43)nnc2-c2cccc(S(=O)(=O)N(C)C)c2)c1` showed an IC50 of 8.44 µM. `COc1cc2c(c3oc4cccc(O)c4c(=O)c13)C1C=COC1O2` (stereo unspecified) showed an IC50 of 36.7 µM. Compound `CC(C)OC(=O)c1cc2c(ccn2-c2ccc(F)cc2)n1CC(=O)NC1CCCCC1` has an IC50 of 27.5 µM. In the case of `Cc1ccc(Nc2nc(O)c(CC(=O)Nc3ccccc3C)s2)cc1C`, the IC50 is reported as 16.7 µM. `COc1cccc(C(=O)Oc2ccc3c(=O)c(-c4ccc(OC)c(OC)c4)coc3c2)c1` was tested, and the IC50 was 0.14 µM. In the case of `COc1c2c(cc3cc(O)c4c(=O)cc(C)oc4c13)CCC2=O`, the IC50 is reported as 28.8 µM. Compound `Cc1nc(N2CCCC2)ncc1-c1cc(=O)[nH]c(N2CCc3ccccc3C2)n1` has an IC50 of 21.9 µM. With `COc1ccc(NC(=O)c2nnc(C(=O)NCCN3CCCCCC3)s2)cc1` the IC50 was 12.2 µM. Work on `O=C(Cc1cc(-c2ccc(F)cc2)on1)NCc1ccccc1` yielded an IC50 of 22.1 µM. `CCn1c(=O)c(=O)[nH]c2cc(C(=O)Nc3cccc(-c4csc(C)n4)c3)ccc21` was tested, and the IC50 was 1.99 µM. `Cn1c2ccccc2c(=O)c2c(=O)n(Cc3ccccc3)c(-c3ccco3)nc21` showed an IC50 of 1.23 µM. In the case of `O=C(NCc1ccc(Cl)cc1)c1ccc(N2CCCS2(=O)=O)cc1`, the IC50 is reported as > 50 µM (inactive). With `Cc1sc(NC(=O)CNc2ccccc2)nc1-c1ccc2c(c1)CCN2C(=O)C(C)C` the IC50 was > 50 µM (inactive). In the case of `CCOc1ccc(-c2cc3nc(C4CCN(C(=O)OC(C)(C)C)CC4)c(C(=O)Nc4cc(F)ccc4F)cn3n2)cc1`, the IC50 is reported as > 50 µM (inactive). Compound `Cc1cccc(NC(=O)Cn2c(N3CCOCC3)nc3cc(C)n(C)c3c2=O)c1` has an IC50 of 16.3 µM. With `Cc1cccc(NC(=O)CN2C(=O)CC(c3ccccc3)S(=O)(=O)c3ccccc32)c1C` (stereo unspecified) the IC50 was 21.6 µM. In the case of `O=C(c1ccc2ncccc2c1)N1CCC2(C1)Nc1cccnc1NC2=NC1CCCC1` (stereo unspecified), the IC50 is reported as > 50 µM (inactive). For `Nc1ccc(NC(=O)c2cc3c(s2)CCC3)cc1[N+](=O)[O-]`, the IC50 was 16.9 µM. In the case of `COc1ccc(N2CCN(Cc3nnnn3Cc3ccc4c(c3)OCO4)CC2)cc1`, the IC50 is reported as > 50 µM (inactive). With `CC(=O)Nc1ccc(NC(=O)c2cc(-c3cc(C)cc(C)c3O)n[nH]2)cc1` the IC50 was 10.8 µM. `Nc1c(-c2nc(-c3ccc4c(c3)OCO4)cs2)nnn1-c1ccccc1` was tested, and the IC50 was 30.8 µM. `COc1cccc(CC(=O)Nc2cc(F)c3nc(N4CCOCC4)ccc3c2)c1` was tested, and the IC50 was > 50 µM (inactive). `O=C(Nc1ccc(Cl)cc1F)c1cc(-c2ccccn2)n[nH]1` was tested, and the IC50 was 1.7 µM. `Cc1ccc(C(=O)CCC(=O)OCC(=O)c2ccc3[nH]c(=O)[nH]c3c2)cc1` was tested, and the IC50 was 24.1 µM. `CSc1nc(Cc2ccc(Cl)cc2)nc2ccccc12` gave an IC50 of 14 µM. Compound `COc1ccc(OCCn2c(C3CC(=O)N(c4cccc(C)c4)C3)nc3ccccc32)cc1` (stereo unspecified) has an IC50 of 1.57 µM. `O=C(Nc1ccc2c(c1)OCO2)c1cc(-c2cccnc2)n(-c2ccccc2)n1` was tested, and the IC50 was 8.27 µM. In the case of `O=C(Cc1nnc2c(-c3nc(C4CC4)no3)cccn12)Nc1ccccc1`, the IC50 is reported as 16.5 µM. In the case of `N#Cc1ccccc1Cn1c(=O)n(Cc2ccco2)c(=O)c2ccccc21`, the IC50 is reported as 7.54 µM. `COc1ccc(-c2cc3c(=O)n(CC(=O)Nc4ccccc4Cl)ccn3n2)cc1` was tested, and the IC50 was 10 µM.
